According to patent EP4772178A1, “ANTI-TUMOR USE OF ACT001 COMPOSITION” (Accendatech Co. Ltd., priority 2023, dated 2025):
Values joined by “and” are separate entries in the source; they are usually repeats but may differ in a detail not shown here. Equal values may be shown once.

How the values were obtained:
[1] = tested on: GBM; experiment: ACT001-CN-002 Phase II clinical trial, efficacy (best response, iRANO criteria); assay type: in vivo, patients; conditions: one line per patient; duration of stable disease
[2] = tested on: peripheral blood suppressive Treg lymphocytes; experiment: ACT001-CN-002 Phase II clinical trial, exploratory endpoint: peripheral blood Treg ratio; assay type: in vivo, patients; conditions: one line per patient; for Peripheral blood Treg ratio (before treatment): first figure of the cell; for Peripheral blood Treg ratio (after treatment): second figure of the cell
[3] = ACT001-CN-002 Phase II clinical trial, safety assessment (peripheral blood lymphopenia)
Experimental: GBM patients who relapsed after standard treatment were randomly assigned to three cohorts of an ACT001-CN-002 Phase II clinical trial: • Cohort A: ACT001 monotherapy (400 mg, BID); • Cohort B: ACT001 and TMZ (temozolomide) were administered in combination at doses of 400mg, BID (ACT001) and 200 mg/m^2/day (TMZ, administered on days one to five of each 28-day course of treatment), respectively; • Cohort C: CCNU monotherapy (lomustine, 100-130 mg/m^2/dose, once every six weeks, 4 doses at most) or TMZ monotherapy (the dosage level and the route of administration were the same as those for cohort B).
The trial endpoints were post-dose progression-free survival (iRANO criteria), one-year survival rate, and safety assessment: the number of times each safety event occurred (e.g., the incidence of peripheral blood lymphopenia). The exploratory endpoints included changes in the peripheral blood suppressive Treg lymphocyte ratio.

SMILES: CC1=C2CC[C@@](C)(O)[C@@H]2[C@H]2OC(=O)[C@@H](CN(C)C)[C@@H]2CC1 [ACT001]
- Best response time (months) [1]: 9 months and 4 months
- Peripheral blood Treg ratio (before treatment) [2]: 3.2 and 8.7 and 5.9 and 6.9 and 2.4
- Peripheral blood Treg ratio (after treatment) [2]: 8.4 and 6.5 and 6.7 and 1.8 and 9.4
- Grade 3 or higher lymphopenia ([3]; human, in vivo): No

SMILES: O=NN(CCCl)C(=O)NC1CCCCC1 [CCNU, lomustine]
- Best response time (months) [1]: 6 months
- Peripheral blood Treg ratio (before treatment) [2]: 6.6 and 5.6 and 11.4
- Peripheral blood Treg ratio (after treatment) [2]: 12.4 and 7.3 and 9.5
- Grade 3 or higher lymphopenia ([3]; one line per patient): No (2×) and Yes

SMILES: Cn1nnc2c(C(N)=O)ncn2c1=O [TMZ, temozolomide]
- Best response time (months) [1]: 7 months and 4 months
- Peripheral blood Treg ratio (before treatment) [2]: 4.3 and 7.1
- Peripheral blood Treg ratio (after treatment) [2]: 14.3 and 7.5
